Laboratory results: patent publication US9302999B2, “Substituted triazoles as herbicides” (E. I. DU PONT DE NEMOURS AND COMPANY, priority 2012, dated 2016)

Columns and labels:
Type in all cases: in vivo
[1] = test system: barnyardgrass (Echinochloa crus-galli); test: Test A pre-/postemergence: barnyardgrass
In short: (§1)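 Visual 0–100 injury ratings (0 no effect, 100 complete control) taken about ten days after treatment, relative to untreated controls. Preemergence treatment was a directed soil spray; postemergence plants were 2–10 cm tall at one- to two-leaf stage. Soil: loam/sand blend.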

[2] = test system: blackgrass (Alopecurus myosuroides); test: Test C pre-/postemergence: blackgrass
In short: (§2)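 Preemergence on seeds in loam/sand, postemergence on 2–18 cm (1–4-leaf) plants in peat-based medium; compounds in non-phytotoxic solvent with surfactant. After 13–15 days in greenhouse, visual rating versus controls, 0 (no effect) to 100 (complete control).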

wild oat (Avena fatua) = test: Test C pre-/postemergence: wild oat; conditions: Postemergence
In short: as §2

soybean (Glycine max) = test: Test C pre-/postemergence: soybean
In short: as §2

[3] = test system: ragweed (common ragweed, Ambrosia elation); test: Test C pre-/postemergence: ragweed
In short: as §2

[4] = test system: foxtail, giant (giant foxtail, Setaria faberii); test: Test A pre-/postemergence: foxtail, giant
In short: as §1

[5] = test system: winter wheat (Triticum aestivum); test: Test C pre-/postemergence: winter wheat
In short: as §2

corn (Zea mays) = test: Test C pre-/postemergence: corn
In short: as §2

[6] = test system: johnsongrass (Sorghum halepense); test: Test C pre-/postemergence: johnsongrass
In short: as §2

[7] = test system: crabgrass, large (large crabgrass, Digitaria sanguinalis); test: Test A pre-/postemergence: crabgrass, large
In short: as §1

[8] = test system: nutsedge, yellow (yellow nutsedge, Cyperus esculentus); test: Test C pre-/postemergence: nutsedge, yellow
In short: as §2

[9] = test system: large crabgrass (Digitaria sanguinalis); test: Test C pre-/postemergence: large crabgrass
In short: as §2

[10] = Postemergence, 125 g ai/ha, 0 to 100 scale, 0 is no effect, 100 is complete control
[11] = Postemergence, 500 g ai/ha, 0 to 100 scale, 0 is no effect, 100 is complete control
[12] = Preemergence, 125 g ai/ha, 0 to 100 scale where 0 is no effect and 100 is complete control
[13] = Preemergence, 500 g ai/ha, 0 to 100 scale (0 no effect, 100 complete control)
[14] = Postemergence, 31 g ai/ha, scale 0 to 100 (0 no effect, 100 complete control)
[15] = Postemergence, 62 g ai/ha, scale 0 to 100 (0 no effect, 100 complete control)
[16] = Postemergence, 125 g ai/ha, scale 0 to 100, 0 no effect, 100 complete control
[17] = Postemergence, 250 g ai/ha, scale 0 to 100
[18] = Preemergence, 31 g ai/ha, scale 0 (no effect) to 100 (complete control)
[19] = Preemergence, 62 g ai/ha, scale of 0 to 100, 0 is no effect, 100 is complete control
[20] = Preemergence, 125 g ai/ha, scale 0 to 100, 0 no effect, 100 complete control
[21] = Preemergence, 250 g ai/ha, scale 0 to 100, 0 no effect, 100 complete control

## CCc1nn(-c2ccc(F)cc2)nc1Oc1ccnc(C(F)(F)F)c1 [Compound 166]
[1]; [10]
  Plant response rating, Barnyardgrass: 70
[1]; [11]
  Barnyardgrass plant response rating: 90
[1]; [12]
  Plant response rating, Barnyardgrass: 90
[1]; [13]
  Plant response rating, Barnyardgrass: 100
[2]; [14]
  Plant response rating, Blackgrass: 10
[2]; [15]
  Plant response rating, Blackgrass: 20
[2]; [16]
  Plant response rating, Blackgrass: 40
[2]; [17]
  Plant response rating, Blackgrass: 60
[2]; [18]
  Plant response rating, Blackgrass: 15
[2]; [19]
  Plant response rating, Blackgrass: 90
[2]; [20]
  Plant response rating, Blackgrass: 90
[2]; [21]
  Plant response rating, Blackgrass: 95
Wild oat (Avena fatua); 31 g ai/ha, scale 0 to 100 (0 no effect, 100 complete control)
  Plant response rating, Oat, Wild: 15
Wild oat (Avena fatua); 62 g ai/ha, scale 0 to 100 (0 no effect, 100 complete control)
  Plant response rating, Oat, Wild: 20
Wild oat (Avena fatua); 250 g ai/ha, scale 0 to 100
  Plant response rating, Oat, Wild: 30
Soybean (Glycine max); [14]
  Plant response rating, Soybean: 35
Soybean (Glycine max); [15]
  Plant response rating, Soybean: 35
Soybean (Glycine max); [16]
  Plant response rating, Soybean: 35
Soybean (Glycine max); [17]
  Plant response rating, Soybean: 35
Soybean (Glycine max); [18]
  Plant response rating, Soybean: 5
Soybean (Glycine max); [19]
  Plant response rating, Soybean: 5
Soybean (Glycine max); [20]
  Plant response rating, Soybean: 20
Soybean (Glycine max); [21]
  Plant response rating, Soybean: 35
[3]; [14]
  Plant response rating, Ragweed: 15
[3]; [15]
  Plant response rating, Ragweed: 15
[3]; [16]
  Plant response rating, Ragweed: 25
[3]; [17]
  Plant response rating, Ragweed: 75
[3]; [18]
  Plant response rating, Ragweed: 20
[3]; [19]
  Plant response rating, Ragweed: 20
[3]; [20]
  Plant response rating, Ragweed: 25
[3]; [21]
  Plant response rating, Ragweed: 55
[4]; [10]
  Plant response rating, Foxtail, Giant: 90
[4]; [11]
  Foxtail, Giant plant response rating: 90
[4]; [12]
  Plant response rating, Foxtail, Giant: 100
[4]; [13]
  Plant response rating, Foxtail, Giant: 100
[5]; [14]
  Plant response rating, Wheat: 5
[5]; [15]
  Plant response rating, Wheat: 5
[5]; [16]
  Plant response rating, Wheat: 5
[5]; [17]
  Plant response rating, Wheat: 10
[5]; [18]
  Plant response rating, Wheat: 0
[5]; [19]
  Plant response rating, Wheat: 0
[5]; [20]
  Plant response rating, Wheat: 5
[5]; [21]
  Plant response rating, Wheat: 15
Corn (Zea mays); [14]
  Plant response rating, Corn: 15
Corn (Zea mays); [15]
  Plant response rating, Corn: 15
Corn (Zea mays); [16]
  Plant response rating, Corn: 15
Corn (Zea mays); [17]
  Plant response rating, Corn: 15
Corn (Zea mays); [18]
  Plant response rating, Corn: 0
Corn (Zea mays); [20]
  Plant response rating, Corn: 5
Corn (Zea mays); [21]
  Plant response rating, Corn: 20
[6]; [14]
  Plant response rating, Johnsongrass: 10
[6]; [15]
  Plant response rating, Johnsongrass: 15
[6]; [16]
  Plant response rating, Johnsongrass: 20
[6]; [17]
  Plant response rating, Johnsongrass: 20
[6]; [18]
  Plant response rating, Johnsongrass: 10
[6]; [19]
  Plant response rating, Johnsongrass: 30
[6]; [20]
  Plant response rating, Johnsongrass: 75
[6]; [21]
  Plant response rating, Johnsongrass: 100
[7]; [10]
  Plant response rating, Crabgrass, Large: 90
[7]; [11]
  Crabgrass, Large plant response rating: 90
[7]; [12]
  Plant response rating, Crabgrass, Large: 100
[7]; [13]
  Plant response rating, Crabgrass, Large: 100
[8]; [14]
  Plant response rating, Nutsedge, Yellow: 0
[8]; [15]
  Plant response rating, Nutsedge, Yellow: 5
[8]; [16]
  Plant response rating, Nutsedge, Yellow: 5
[8]; [17]
  Plant response rating, Nutsedge, Yellow: 10
[8]; [18]
  Plant response rating, Nutsedge, Yellow: 0
[8]; [19]
  Plant response rating, Nutsedge, Yellow: 0
[8]; [20]
  Plant response rating, Nutsedge, Yellow: 5
[8]; [21]
  Plant response rating, Nutsedge, Yellow: 15
[9]; [14]
  Plant response rating, Crabgrass, Large: 15
[9]; [15]
  Plant response rating, Crabgrass, Large: 15
[9]; [16]
  Plant response rating, Crabgrass, Large: 20
[9]; [17]
  Plant response rating, Crabgrass, Large: 40
[9]; [18]
  Plant response rating, Crabgrass, Large: 85
[9]; [19]
  Plant response rating, Crabgrass, Large: 98
[9]; [20]
  Plant response rating, Crabgrass, Large: 100
[9]; [21]
  Plant response rating, Crabgrass, Large: 100
